Assay results from patent publication US20120128860A1, “PREPARATION OF VEGETABLE MATERIAL AND FOOD PRODUCTS” (priority 2009, published 2012).

System: tobacco plants (Nicotiana tabacum)
Test: Chlorophyll a and b content of tobacco leaves after pre-harvest kinetin treatment, soaking and storage
Assay type: in vivo
Design: reduction after 27 d (chlorophyll): concentration or dose not given beside the values
Conditions: cytokinin 5 days pre-harvest; for reduction after 27 d (chlorophyll): 27 d storage; for chlorophyll level after 0 d storage / chlorophyll level after 3 d storage / chlorophyll level after 7 d storage / chlorophyll level after 10 d storage / chlorophyll level after 14 d storage / chlorophyll level after 20 d storage / chlorophyll level after 27 d storage: stored 4° C. dark
Method: Determination of chlorophyll contents of fresh leaves using a spectrophotometer. Procedure: • 1. Homogenisation of plant tissue (100 mg) in liquid nitrogen. For each data point at least three biological samples were harvested. • 2. Addition of 400 microliter acetone in 10 micromolar KOH and subsequent vortexing • 3. Centrifugation of the homogenate at 13,000 rpm for 10 min to remove cell debris and proteins • 4. Transfer of the supernatant into new test tubes • 5. Addition 200 microliter of extraction mixture to the pellet as mentioned above and vortexing • 6. Centrifugation of the homogenate at 13,000 rpm for 10 min • 7. Mix of the supernatant with the supernatant from step 4 • 8. Repeat of steps 5-7 three times until the pellet is completely white • 9. Dilution of the sample 1:10 in acetone and measurement of absorption at 664, 646/7 and 750 nm in a spectrophotometer. All absorbance measurements at the indicated wavelength need subtraction of the absorbance at 750 nm. Calculation of the chlorophyll contents by comparing with calibration curves.
Determination of chlorophyll contents of leaves by HPLC. Procedure: • 1. Homogenisation of 100 mg plant material in liquid nitrogen in a test tube • 2. Addition of 500 microliter acetone with 10 micromolar KOH and vortexing. • 3. Centrifugation of the suspension for 10 min at 4° C. at 13.000 rpm. • 4. The supernatant is transferred into new test tube • 5. Addition of 500 microliter acetone to the pellet and resuspension of the pellet • 6. Centrifugation for 10 min at 4° C. at 13.000 rpm. • 7. The supernatant is combined with the supernatant from step 4 • 8. The samples are vortexed and centrifuged for 10 min at 4° C. at 13,000 rpm. • 9. A 40 microliter aliquot of the extract is mixed with 160 microliter water • 10. The sample is transferred into a HPLC vial • 11. An aliquot of 10-100 microliter is injected into the HPLC column (RP C18 column) • 12. Running buffers: Acetonitril/H2O/triethylamine (1798:200:2) and ethyl acetate
Objective of the experiments: to combine effects of pre-harvest treatment of tobacco plants with the growth hormone kinetin and subsequently soaking with a buffer solution on the stability of chlorophyll after heat treatment followed by different storage periods.
A 1 mM kinetin solution in water was made by dissolving kinetin dropwise with 10 microliter 1M NaOH, then the solution was neutralized to pH 7.0 with HCl. This 1 mM kinetin aqueous solution was injected into the leaves of growing tobacco plants (Nicotiana tabacum). The application of cytokinin was repeated once a day for five successive days. At day 7, tobacco leaves were harvested and stored in aluminium foils. Control plants were treated with the same solution at pH 7.0 (in water), but without kinetin.
After harvest, leaves of the harvested plants (both treated with cytokinin, as well as the control plants) were separated in batches, which were subsequently treated at different temperatures in one the following ways: • 1. leaves were soaked in tap water during 1 minute at room temperature; • 2. leaves were soaked in a buffer solution of pH 7.2 during 1 minute at room temperature; • 3. leaves were soaked in tap water during 1 minute at 70° C.; • 4. leaves were soaked in a buffer solution of pH 7.2 during 1 minute at 70° C.; • 5. leaves were soaked in tap water during 1 minute at 90° C.; • 6. leaves were soaked in a buffer solution of pH 7.2 during 1 minute at 90° C.;
Immediately after each of these steps, the soaked leaves were cooled shortly in a cold tap water bath at 3° C.
The aqueous buffer solution contained 137 mM NaCl, 2.7 mM KCL, 10 mM Na2HPO4 and 2 mM KH2PO4, and was adjusted to pH 7.2 with more hydrogen phosphate or dihydrogenphosphate if required.
Finally the chlorophyll content of the leaves was quantified after storage in tissue papers at 4° C. in the dark at various moments in time. […]

[1] = soaked 1 min in buffer pH 7.2 at 70° C.
[2] = soaked 1 min in buffer pH 7.2 at 90° C.
[3] = soaked 1 min in buffer pH 7.2 at room temperature
[4] = soaked 1 min in water at 70° C.
[5] = soaked 1 min in water at 90° C.
[6] = soaked 1 min in water at room temperature

Q: For `c1coc(CNc2ncnc3[nH]cnc23)c1` [cytokinin, 6-furfurylaminopurine], which “reduction after 27 d (chlorophyll)” value [1] is on record?
A: Its value is 11%.

Q: What about the “chlorophyll level after 0 d storage” value [1] of the same molecule?
A: Its value is 18 micromole per gram fresh weight.

Q: What about the “chlorophyll level after 3 d storage” value [1] of the same molecule?
A: The value was 17.5 micromole per gram fresh weight.

Q: What about the “chlorophyll level after 7 d storage” value [1] of the same molecule?
A: The value was 17.2 micromole per gram fresh weight.

Q: And the “chlorophyll level after 10 d storage” value [1]?
A: Its value is 17 micromole per gram fresh weight.

Q: And the “chlorophyll level after 14 d storage” value [1]?
A: Its value is 17 micromole per gram fresh weight.

Q: What about the “chlorophyll level after 20 d storage” value [1] of the same molecule?
A: The value was 16.8 micromole per gram fresh weight.

Q: What about the “chlorophyll level after 27 d storage” value [1] of the same molecule?
A: The value was 16 micromole per gram fresh weight.

Q: And the “chlorophyll level after 0 d storage” value [2]?
A: The value was 18 micromole per gram fresh weight.

Q: And the “chlorophyll level after 3 d storage” value [2]?
A: The value was 17.5 micromole per gram fresh weight.

Q: And the “chlorophyll level after 7 d storage” value [2]?
A: Its value is 17 micromole per gram fresh weight.

Q: And the “chlorophyll level after 10 d storage” value [2]?
A: Its value is 16.5 micromole per gram fresh weight.

Q: What about the “chlorophyll level after 14 d storage” value [2] of the same molecule?
A: The value was 16 micromole per gram fresh weight.

Q: What about the “chlorophyll level after 20 d storage” value [2] of the same molecule?
A: The value was 15.5 micromole per gram fresh weight.

Q: What about the “chlorophyll level after 27 d storage” value [2] of the same molecule?
A: Its value is 15 micromole per gram fresh weight.

Q: What about the “reduction after 27 d (chlorophyll)” value [3] of the same molecule?
A: The value was 17%.

Q: And the “chlorophyll level after 0 d storage” value [3]?
A: The value was 18.5 micromole per gram fresh weight.

Q: And the “chlorophyll level after 3 d storage” value [3]?
A: Its value is 17.5 micromole per gram fresh weight.

Q: And the “chlorophyll level after 7 d storage” value [3]?
A: Its value is 16.5 micromole per gram fresh weight.

Q: And the “chlorophyll level after 10 d storage” value [3]?
A: Its value is 15.5 micromole per gram fresh weight.

Q: What about the “chlorophyll level after 14 d storage” value [3] of the same molecule?
A: The value was 16 micromole per gram fresh weight.

Q: And the “chlorophyll level after 20 d storage” value [3]?
A: Its value is 15.5 micromole per gram fresh weight.

Q: And the “chlorophyll level after 27 d storage” value [3]?
A: The value was 15 micromole per gram fresh weight.

Q: What about the “chlorophyll level after 0 d storage” value [4] of the same molecule?
A: Its value is 17.5 micromole per gram fresh weight.

Q: And the “chlorophyll level after 3 d storage” value [4]?
A: The value was 17 micromole per gram fresh weight.

Q: What about the “chlorophyll level after 7 d storage” value [4] of the same molecule?
A: The value was 16.5 micromole per gram fresh weight.

Q: And the “chlorophyll level after 10 d storage” value [4]?
A: The value was 16.5 micromole per gram fresh weight.

Q: What about the “chlorophyll level after 14 d storage” value [4] of the same molecule?
A: The value was 16 micromole per gram fresh weight.

Q: And the “chlorophyll level after 20 d storage” value [4]?
A: The value was 16 micromole per gram fresh weight.

Q: And the “chlorophyll level after 27 d storage” value [4]?
A: Its value is 15.5 micromole per gram fresh weight.

Q: What about the “reduction after 27 d (chlorophyll)” value [5] of the same molecule?
A: The value was 50%.

Q: What about the “chlorophyll level after 0 d storage” value [5] of the same molecule?
A: Its value is 15 micromole per gram fresh weight.

Q: What about the “chlorophyll level after 3 d storage” value [5] of the same molecule?
A: Its value is 13.5 micromole per gram fresh weight.

Q: And the “chlorophyll level after 7 d storage” value [5]?
A: The value was 12.5 micromole per gram fresh weight.

Q: And the “chlorophyll level after 10 d storage” value [5]?
A: Its value is 11 micromole per gram fresh weight.

Q: What about the “chlorophyll level after 14 d storage” value [5] of the same molecule?
A: The value was 9.8 micromole per gram fresh weight.

Q: And the “chlorophyll level after 20 d storage” value [5]?
A: The value was 8.8 micromole per gram fresh weight.

Q: What about the “chlorophyll level after 27 d storage” value [5] of the same molecule?
A: Its value is 7.5 micromole per gram fresh weight.

Q: What about the “reduction after 27 d (chlorophyll)” value [6] of the same molecule?
A: Its value is 9%.

Q: What about the “chlorophyll level after 0 d storage” value [6] of the same molecule?
A: The value was 18 micromole per gram fresh weight.

Q: And the “chlorophyll level after 3 d storage” value [6]?
A: The value was 17.8 micromole per gram fresh weight.

Q: What about the “chlorophyll level after 7 d storage” value [6] of the same molecule?
A: The value was 17.2 micromole per gram fresh weight.

Q: What about the “chlorophyll level after 10 d storage” value [6] of the same molecule?
A: Its value is 16.5 micromole per gram fresh weight.

Q: What about the “chlorophyll level after 14 d storage” value [6] of the same molecule?
A: The value was 16.2 micromole per gram fresh weight.

Q: What about the “chlorophyll level after 20 d storage” value [6] of the same molecule?
A: The value was 16 micromole per gram fresh weight.

Q: And the “chlorophyll level after 27 d storage” value [6]?
A: The value was 16 micromole per gram fresh weight.
